Source: patent US20260223850A1, “SUBSTITUTED PYRROLIDONE COMPOUND, PREPARATION METHOD THEREFOR, COMPOSITION AND APPLICATION THEREOF” (QINGDAO KINGAGROOT CHEMICAL COMPOUND CO., LTD., priority 2023, published 2026)
Read-outs that look alike come from different tables or passages of the source.

Columns and labels:
Format in all cases: in vivo
[1] = test system: weeds; assay: Activity assay of compositions, soil sealing treatment (S); settings: for pest or weed control at 7.5 g/ha: B 7.5 g a.i./ha; for pest or weed control at 300 g/ha: B 300 g a.i./ha
Excerpt: The required active ingredient B was purchased from a reagent company or a technical material manufacturer or synthesized by a conventional method. The technical materials were all dissolved with acetone solvents and diluted with aqueous solution of 0.1% Tween® 80 emulsifier, which should be used immediately after dilution.
The test soil was quantitatively filled to ¾ of a pot, and then watered from the bottom of the pot to completely wet the soil to saturation. The seeds of the test weeds were accelerated to Just germinate, and then evenly and quantitatively broadcasted on the soil surface, covered with 0.5-1 cm soil according to the sizes of the seeds, and ready for use 72 hours after broadcasting.
Each treatment was repeated 4 times. Four pots were treated each time with 20 weed seeds per pot.
The seeds were planted in a 20 cm*30 cm square box. Water was added to 2-3 cm deep after sowing, then injected with the drug agent using a syringe, stirred evenly, and left to stand for 2 days to dry naturally. The soil was kept moist afterwards.
A method for investigating absolute numbers was employed. The whole seedlings of the survival weeds were cut along the soil surface with a blade, and the fresh weight of the weeds was weighed by an analytical balance. For dead weeds, the fresh weight thereof was considered zero.
The investigation was performed 21 days after the treatment for once in total.
The theoretical fresh weight inhibition rate of a mixed combination of each treatment was calculated by the Gowing method (E0═X+Y−X*Y/100), then compared with the measured inhibition rate (E) to evaluate the type of the combined action of the combination of the two on weeds. The combined action was a synergistic effect when E−E0 >10%; an antagonistic effect when E−E0<−10%; an additional effect when −10%≤E−E0≤10%. An optimal ratio was determined according to factors such as actual control effects, characteristics of herbicides, balance of the formulation, etc.

[2] = test system: Leptochloa chinensis; assay: Seedling stage sealing experiment for water-seeding; settings: 120 g a.i./ha, 15 days, fresh weight control rate
How it was run: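 Seeds sown in soil-filled bowls kept moist in water-filled boxes; compound in acetone diluted with water and spray-applied at 120, 60, 30 and 15 g a.i./ha, triplicate. After 15 days in greenhouse, fresh-weight growth control scored on a 0–9 scale (9 = dead, 0 = no effect), averaged.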

[3] = test system: Digitaria sanguinalis; assay: as above; settings: 120 g a.i./ha, seedling stage sealing, 15 days, fresh weight control rate
How it was run: (§1)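 Seeds broadcast on soil in nutrition bowls, covered, kept moist in a water-filled box; compound in acetone diluted with water and spray-tower applied at 120, 60, 30 and 15 g a.i./ha, triplicate. Scored after 15 days in greenhouse on a 0–9 scale of fresh-weight growth control, averaged.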

[4] = test system: Echinochloa crusgalli; assay: as above; settings: 120 g a.i./ha, seedling stage sealing, 15 days, fresh weight control rate
[5] = test system: Echinochloa phyllopogon; assay: as above; settings: 120 g a.i./ha, seedling stage sealing, 15 days, fresh weight control rate
How it was run: as §1

[6] = test system: Huaidao (rice cultivar); assay: Seedling stage sealing experiment for water-seeding (crop safety); settings: 120 g a.i./ha, seedling stage sealing, 15 days, fresh weight control rate
How it was run: as §1

[7] = soil, Rotala indica, S, read-out: Control effect of B applied alone in a corresponding dose (%)
[8] = soil, Rotala indica, S, B 15 g a.i./ha, read-out: Control effect of B applied alone in a corresponding dose (%)
[9] = soil, Paspalum distichum, S, B 30 g a.i./ha, read-out: Control effect of B applied alone in a corresponding dose (%)
[10] = soil, Paspalum distichum, S, B 60 g a.i./ha, read-out: Control effect of B applied alone in a corresponding dose (%)
[11] = soil, Paspalum distichum, S, read-out: Control effect of B applied alone in a corresponding dose (%)
[12] = soil, Paspalum distichum, S, B 15 g a.i./ha, read-out: Control effect of B applied alone in a corresponding dose (%)
[13] = soil, Rotala indica, S, B 150 g a.i./ha, read-out: Control effect of B applied alone in a corresponding dose (%)
[14] = Rotala indica, soil, read-out: Control effect of B applied alone in a corresponding dose (%)
[15] = Rotala indica, S, B 15 g a.i./ha
[16] = Rotala indica, S, B 30 g a.i./ha

Row | Structure (SMILES) | Leptochloa chinensis activity level (growth control rate) [2] | Digitaria sanguinalis activity level (growth control rate) [3] | Echinochloa crusgalli activity level (growth control rate) [4] | Echinochloa phyllopogon activity level (growth control rate) [5] | further results
1 | CCc1ccc(-n2cnc(C(F)(F)F)n2)nc1Oc1cccc(C(F)(F)F)c1 | – | – | – | – | pest or weed control at 7.5 g/ha [1, 7]: 47.1%; pest or weed control at 15 g/ha [1, 8]: 63.6%
2 | CCC[S@@+]([O-])c1c(C(F)(F)F)ccc(C(=O)Nc2nnc(C)o2)c1F | – | – | – | – | pest or weed control at 15 g/ha [1, 8]: 35.8%; pest or weed control at 30 g/ha ([1]; soil, Rotala indica, S, B 30 g a.i./ha, read-out: Control effect of B applied alone in a corresponding dose (%)): 46.6%
3 | COC(=O)[C@@H](C)O/N=C/c1cc(-n2c(=O)cc(C(F)(F)F)n(C)c2=O)c(F)cc1Cl | – | – | – | – | pest or weed control at 7.5 g/ha [1, 7]: 47.9%; pest or weed control at 15 g/ha [1, 8]: 56.6%
4 | CC1(C)CON(Cc2ccc(Cl)cc2Br)C1=O | – | – | – | – | pest or weed control at 30 g/ha [1, 9]: 37.8%; pest or weed control at 60 g/ha [1, 10]: 51.3%
5 | CC(C)C12CCC(C)(O1)C(OCc1c(F)cccc1Br)C2 (centres unmarked) | – | – | – | – | pest or weed control at 7.5 g/ha [1, 11]: 46.3%; pest or weed control at 15 g/ha [1, 12]: 57.4%
6 | Cc1ccccc1CO[C@@H]1C[C@@]2(C(C)C)CC[C@]1(C)O2 (racemic) [Cinmethylin, cinmethylin] | – | – | – | – | pest or weed control at 7.5 g/ha [1, 11]: 34.8%; pest or weed control at 15 g/ha [1, 12]: 47.6%
7 | CN1C[C@H](c2cc(F)cc(F)c2)[C@@H](C(=O)Nc2cnn(C)c2Cl)C1=O [115′] | 8 (Level 8: growth control rate greater than or equal to 90% and less than 100%) | 8 (Level 8: growth control rate greater than or equal to 90% and less than 100%) | 9 | – | –
8 | Cc1cccc([C@H]2CN(C)C(=O)[C@@H]2C(=O)Nc2cnn(C(F)F)c2Cl)c1 [131′] | 9 | 9 | 9 | 9 | –
9 | Cc1cccc([C@H]2CN(C)C(=O)[C@@H]2C(=O)Nc2cnn(C)c2C2CC2)c1 [139′] | 9 | 7 (Level 7: growth control rate greater than or equal to 80% and less than 90%) | 9 | – | –
10 | C=CCn1ncc(NC(=O)[C@H]2C(=O)N(C)C[C@@H]2c2cccc(C(F)(F)F)c2)c1Cl [162′] | 9 | 8 (Level 8: growth control rate greater than or equal to 90% and less than 100%) | 9 | – | –
11 | CN1C[C@H](c2cc(C(F)(F)F)cc(C(F)(F)F)c2)[C@@H](C(=O)Nc2cnn(C)c2Cl)C1=O [295′] | 9 | 9 | 7 (Level 7: growth control rate greater than or equal to 80% and less than 90%) | 6 (Level 6: growth control rate greater than or equal to 70% and less than 80%) | –
12 | COc1cc(F)cc([C@H]2CN(C)C(=O)[C@@H]2C(=O)Nc2cnn(C)c2Cl)c1 [298′] | 7 (Level 7: growth control rate greater than or equal to 80% and less than 90%) | 9 | 7 (Level 7: growth control rate greater than or equal to 80% and less than 90%) | 6 (Level 6: growth control rate greater than or equal to 70% and less than 80%) | –
13 | Cc1ccc([C@H]2CN(C)C(=O)[C@@H]2C(=O)Nc2cnn(C)c2Cl)cc1F [313′] | 9 | 9 | 9 | – | –
14 | CCOCN(C(=O)CCl)c1c(C)cccc1CC [Acetochlor, acetochlor] | – | – | – | – | pest or weed control at 150 g/ha [1, 13]: 46.2%; pest or weed control at 300 g/ha [1, 7]: 66.5%
15 | COP(=S)(OC)SCC(=O)N(c1ccc(Cl)cc1)C(C)(C)C [Anilofos, anilofos] | – | – | – | – | pest or weed control at 75 g/ha [1, 14]: 22.4%; pest or weed control at 150 g/ha [1, 14]: 31.8%
16 | CS(=O)(=O)c1ccc(C(=O)C2=C(Sc3ccccc3)C3CCC(C3)C2=O)c(Cl)c1 (centres unmarked) [Benzobicyclon, benzobicyclon] | – | – | – | – | Control effect of B applied alone in a corresponding dose (%) [1, 15]: 32.8%; Control effect of B applied alone in a corresponding dose (%) [1, 16]: 49.6%
17 | Cc1nn(C)cc1C(=O)Oc1c(C(=O)c2ccc(C(F)(F)F)cc2S(C)(=O)=O)c(C)nn1C [Bipyrazone, bipyrazone] | – | – | – | – | Control effect of B applied alone in a corresponding dose (%) [1, 15]: 24.5%; Control effect of B applied alone in a corresponding dose (%) [1, 16]: 38.8%
18 | CC1(C)CON(Cc2ccc(Cl)cc2Cl)C1=O [Bixlozone, bixlozone] | – | – | – | – | Control effect of B applied alone in a corresponding dose (%) ([1]; Paspalum distichum, S, B 30 g a.i./ha): 41.7%; Control effect of B applied alone in a corresponding dose (%) ([1]; Paspalum distichum, S, B 60 g a.i./ha): 52.8%
19 | CCCCOCN(C(=O)CCl)c1c(CC)cccc1CC [Butachlor, butachlor] | – | – | – | – | pest or weed control at 150 g/ha [1, 13]: 42.4%; pest or weed control at 300 g/ha [1, 7]: 58.6%
20 | CC1(C)CON(Cc2ccccc2Cl)C1=O [Clomazone, clomazone] | – | – | – | – | pest or weed control at 30 g/ha [1, 9]: 44.3%; pest or weed control at 60 g/ha [1, 10]: 51.5%
21 | Cc1ccc(C2CN(C)C(=O)C2C(=O)Nc2cnn(C)c2Cl)cc1C(F)(F)F (centres unmarked) [Compound 56] | 9 | 9 | 9 | 6 (Level 6: growth control rate greater than or equal to 70% and less than 80%) | –
22 | CN1CC(c2cc(F)c(F)c(F)c2)C(C(=O)Nc2cnn(C)c2Cl)C1=O (centres unmarked) [Compound 114] | 9 | 9 | 9 | 6 (Level 6: growth control rate greater than or equal to 70% and less than 80%) | –
23 | Cc1cc(C)cc(C2CN(C)C(=O)C2C(=O)Nc2cnn(C)c2Cl)c1 (centres unmarked) [Compound 117] | 9 | 9 | 9 | 6 (Level 6: growth control rate greater than or equal to 70% and less than 80%) | Huaidao (rice cultivar) plant damage level [6]: 0
24 | COc1c(Cl)ccc(C2CN(C)C(=O)C2C(=O)Nc2cnn(C)c2Cl)c1F (centres unmarked) [Compound 118] | 6 (Level 6: growth control rate greater than or equal to 70% and less than 80%) | 9 | 9 | 6 (Level 6: growth control rate greater than or equal to 70% and less than 80%) | –
25 | CN1CC(c2cccc(C(F)(F)F)c2)C(C(=O)Nc2cnn(C)c2Br)C1=O (centres unmarked) [Compound 120] | – | 9 | 9 | 9 | Huaidao (rice cultivar) plant damage level [6]: 0
26 | CN1CC(c2cccc(C(F)(F)F)c2)C(C(=O)Nc2cnn(C)c2)C1=O (centres unmarked) [Compound 156] | – | 7 (Level 7: growth control rate greater than or equal to 80% and less than 90%) | 6 (Level 6: growth control rate greater than or equal to 70% and less than 80%) | 6 (Level 6: growth control rate greater than or equal to 70% and less than 80%) | Huaidao (rice cultivar) plant damage level [6]: 0
27 | CCCCOc1cccc(C2CN(C)C(=O)C2C(=O)Nc2cnn(C)c2Cl)c1 (centres unmarked) [Compound 221] | 9 | 9 | – | – | –
28 | CN1CC(c2ccc(Cl)s2)C(C(=O)Nc2cnn(C)c2Cl)C1=O (centres unmarked) [Compound 339] | 6 (Level 6: growth control rate greater than or equal to 70% and less than 80%) | 7 (Level 7: growth control rate greater than or equal to 80% and less than 90%) | 9 | – | –
